Experiment [1] has as its target Receptor-type tyrosine-protein kinase FLT3 (Homo sapiens) (UniProt P36888). The settings on record: at 20 µM.
The target of experiment [2] is T1, Receptor-type tyrosine-protein kinase FLT3 (Homo sapiens, UniProt P36888).
T1 sequence (P36888 whole entry): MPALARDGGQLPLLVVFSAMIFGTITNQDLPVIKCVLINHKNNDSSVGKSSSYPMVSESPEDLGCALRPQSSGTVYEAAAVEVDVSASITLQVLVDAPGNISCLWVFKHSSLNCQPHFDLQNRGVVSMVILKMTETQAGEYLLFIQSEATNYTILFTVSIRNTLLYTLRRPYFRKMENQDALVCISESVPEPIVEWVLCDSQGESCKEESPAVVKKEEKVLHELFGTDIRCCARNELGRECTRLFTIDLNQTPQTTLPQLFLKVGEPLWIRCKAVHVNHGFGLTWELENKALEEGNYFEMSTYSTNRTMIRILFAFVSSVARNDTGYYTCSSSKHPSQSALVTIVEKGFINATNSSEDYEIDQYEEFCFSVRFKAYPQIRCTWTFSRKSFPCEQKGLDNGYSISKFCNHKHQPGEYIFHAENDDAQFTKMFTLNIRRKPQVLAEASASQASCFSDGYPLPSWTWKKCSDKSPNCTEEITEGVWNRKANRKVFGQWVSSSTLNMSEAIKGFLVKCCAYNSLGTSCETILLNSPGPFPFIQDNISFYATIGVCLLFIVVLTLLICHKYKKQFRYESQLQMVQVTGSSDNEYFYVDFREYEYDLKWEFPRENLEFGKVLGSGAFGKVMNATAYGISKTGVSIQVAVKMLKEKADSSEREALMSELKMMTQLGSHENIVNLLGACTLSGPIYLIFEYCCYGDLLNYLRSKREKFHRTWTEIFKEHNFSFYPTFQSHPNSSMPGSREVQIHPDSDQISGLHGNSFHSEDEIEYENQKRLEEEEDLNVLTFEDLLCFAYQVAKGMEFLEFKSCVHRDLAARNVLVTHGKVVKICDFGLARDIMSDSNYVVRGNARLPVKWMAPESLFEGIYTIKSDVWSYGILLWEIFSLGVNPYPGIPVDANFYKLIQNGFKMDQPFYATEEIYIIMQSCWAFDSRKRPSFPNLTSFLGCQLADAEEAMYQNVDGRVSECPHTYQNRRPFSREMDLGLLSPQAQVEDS

The subject of experiment [3] is Receptor-type tyrosine-protein kinase FLT3 (Homo sapiens), P36888 [UNDEFINED MUTATION]. Kind of experiment: Inhibition of FLT3 ITD mutant in human MV4-11 cells assessed as cell growth inhibition after 48 hrs by CellTiter-Glo assay. The experiment is classed as cell-based. A general note: ATP-based viability assays read luminescence as a measure of living cells.
Experiment [4] has the same test system. Kind of experiment: Inhibition of FLT3 ITD mutant (unknown origin) expressed in mouse BAF3 cells assessed as cell growth inhibition after 48 hrs by CellTiter-Glo assay. The experiment is classed as cell-based.
For experiment [5] the test system is unchanged. Kind of experiment: Inhibition of FLT3 ITD mutant in human MOLM14 cells assessed as cell growth inhibition after 48 hrs by CellTiter-Glo assay. The experiment is classed as cell-based. Particulars: MOLM-14.
For experiment [6] the test system is unchanged. Kind of experiment: Inhibition of FLT3 ITD D835V mutant (unknown origin) expressed in mouse BAF3 cells assessed as cell growth inhibition after 48 hrs by CellTiter-Glo assay. The experiment is classed as cell-based.
The test system is the same in experiment [7]. Kind of experiment: Inhibition of FLT3 ITD F691L mutant (unknown origin) expressed in mouse BAF3 cells assessed as cell growth inhibition after 48 hrs by CellTiter-Glo assay. The experiment is classed as cell-based.

As usually defined, the inhibition is the relative decrease from the control value, in per cent. A high value points to a strong effect. What is called IC50 is the concentration at which inhibition is half-maximal. Lower therefore signals inhibition by little substance. With `Cc1ccc(-c2cnc3cc(-c4ccco4)ccn23)cc1`, in experiment [1], the inhibition is 95.5%. Further, in experiment [2], the IC50 came out at 160 nM.

In turn, `Fc1ccc(-c2cnc3ccccn23)cc1` returned an inhibition in experiment [1] of 94.8%. This molecule also yielded an IC50 in experiment [2] of 480 nM.

For `COc1ccc(-c2ccn3c(-c4ccc(CC#N)cc4)cnc3c2)cc1`, the inhibition in experiment [1] is 91%. It took 430 nM to reach half-maximal inhibition in experiment [2] (IC50).

In turn, `c1coc(-c2ccn3ccnc3c2)c1` displayed an inhibition in experiment [1] of 67.1%.

In turn, `N#Cc1cc(-c2cnc3cc(-c4ccco4)ccn23)ccc1F` displayed an inhibition in experiment [1] of 98.7%. In experiment [2], this molecule came in with an IC50 of 470 nM.

In general, GI50 refers to the concentration at which growth is held to half of that of the control. As to `Fc1ccc(-c2cnc3cc(-c4ccccc4)ccn23)cc1`, the inhibition in experiment [1] came to 98.8%. Moreover, the 50% growth inhibitory concentration (GI50) in experiment [3] came out at 706 nM; in experiment [4], 333 nM; in experiment [5], 513 nM. This molecule displayed an IC50 in experiment [2] of 16 nM.

`Cc1ccc(-c2cnc3cc(-c4cccs4)ccn23)cc1`: in experiment [1], the inhibition amounted to 89.7%.

On to `COc1ccc(-c2ccn3c(-c4ccc(F)c(C#N)c4)cnc3c2)cc1`, for which the inhibition in experiment [1] worked out at 81.4%.

Take `Cc1ccc(-c2cnc3ccccn23)cc1`: the inhibition in experiment [1] is 77%.

In the case of `c1ccc(-c2ccn3ccnc3c2)cc1`, in experiment [1], the inhibition came out at 0%.

Consider `N#CCc1ccc(-c2cnc3cc(-c4cccs4)ccn23)cc1`, for which, in experiment [1], the inhibition stood at 98%. This molecule also returned an IC50 in experiment [2] of 51 nM.

On to `c1ccn2ccnc2c1`, for which, in experiment [1], the inhibition came to 14.6%.

`N#CCc1ccc(-c2cnc3cc(-c4ccco4)ccn23)cc1` registered an inhibition in experiment [1] of 97.8%. Also, inhibition in experiment [2] was half-maximal at 190 nM (IC50).

`Clc1ccn2ccnc2c1` displayed an inhibition in experiment [1] of 23.8%.

`N#Cc1cc(-c2cnc3ccccn23)ccc1F` had an inhibition in experiment [1] of 61.3%.

On to `N#CCc1ccc(-c2cnc3ccccn23)cc1`, for which, in experiment [1], the inhibition amounted to 20%.

In turn, `Fc1ccc(-c2cnc3cc(-c4ccco4)ccn23)cc1` returned an inhibition in experiment [1] of 99.3%. Moreover, the GI50 in experiment [3] was 830 nM; in experiment [4], 484 nM; in experiment [5], 712 nM; in experiment [6], over 1000 nM; in experiment [7] it was over 1000 nM. In experiment [2], this molecule gave an IC50 of 41 nM.

Molecule `Cc1ccc(-c2cnc3cc(-c4ccccc4)ccn23)cc1` came in with an inhibition in experiment [1] of 94.1%. Moreover, in experiment [2], inhibition was half-maximal at 300 nM (IC50).

In turn, `c1csc(-c2ccn3ccnc3c2)c1` came in with an inhibition in experiment [1] of 79.8%.

`N#Cc1cc(-c2cnc3cc(-c4cccs4)ccn23)ccc1F` registered an inhibition in experiment [1] of 29.7%.

On to `COc1ccc(-c2ccn3c(-c4ccc(C)cc4)cnc3c2)cc1`, for which the inhibition in experiment [1] amounted to 91.4%. In experiment [2], this molecule came in with a half-inhibitory concentration (IC50) of 440 nM.

`N#Cc1cc(-c2cnc3cc(-c4ccccc4)ccn23)ccc1F` yielded an inhibition in experiment [1] of 94.1%. For the same molecule, in experiment [2], the IC50 came to 230 nM.

As to `COc1ccc(-c2ccn3c(-c4ccc(F)cc4)cnc3c2)cc1`, the inhibition in experiment [1] was 98.6%. The same molecule gave an IC50 in experiment [2] of 78 nM.

With `COc1ccc(-c2ccn3ccnc3c2)cc1`, the inhibition in experiment [1] amounted to 33.9%.

As for `N#CCc1ccc(-c2cnc3cc(-c4ccccc4)ccn23)cc1`, the inhibition in experiment [1] worked out at 96.4%. In addition, half-maximal inhibition in experiment [2] (IC50) required 550 nM.

The values above are taken from ChEMBL document CHEMBL3414435, “Computer aided drug discovery of highly ligand efficient, low molecular weight imidazopyridine analogs as FLT3 inhibitors” (Eur J Med Chem, 2015).
